We go through 2 substances from patent publication US12656349B2, “Measurement of bevacizumab-insensitive vascular endothelial growth factor-a” (Board of Regents, The University of Texas System, priority 2019, dated 2026).

Assay [1] deals with T1, sEV-VEGF (Homo sapiens, UniProt P15692).
T1 construct: Parental ES2, SKOV3, HCT116 and 786-0 cell lines were purchased from ATCC; endogenous in cells; host or cells: sEVs of parental (VEGF+/+) ES2 and HCT116 cells
T1 sequence (P15692 27-215 isoform P15692-2): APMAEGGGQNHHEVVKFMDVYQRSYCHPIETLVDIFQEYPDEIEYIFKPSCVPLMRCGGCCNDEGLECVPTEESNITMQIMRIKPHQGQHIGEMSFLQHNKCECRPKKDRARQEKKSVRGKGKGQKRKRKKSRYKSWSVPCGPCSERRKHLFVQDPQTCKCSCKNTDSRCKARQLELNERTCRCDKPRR
In words: Flow cytometric analysis of binding of coupled microbeads to VEGF on the surface of sEVs. Conditions: exo-FITC fluorescence. A general note: A flow cytometer gives signals particle by particle.
Method: To detect sEV-associated proteins by using Ab-coupled microbeads, acquisition and analysis of flow cytometry data were performed using a FACSCalibur™ cytometer equipped with CellQuest™ Pro software (BD Biosciences). […] Thereafter, microbeads were incubated with sEVs (100 μg, approximately 2×10^8 vesicles) at 4° C. for 16 h with rotation, washed with 1% BSA in PBS, stained with exo-FITC dye, and then acquired. Binding of Ab to protein on the surface of sEVs was evaluated by analyzing exo-FITC fluorescence in the gated population of singlet microbeads. A minimum of 10,000 gated events was analyzed for each sample. […] Following washing, microbeads were acquired and PerCP fluorescence analyzed in the gated population of singlet microbeads. […] Three independent experiments were performed for each assay. Contour plots were generated by using CellQuest™ Pro software.

In assay [2] the test system is HUVEC. Kind of assay: Tube formation assay in HUVEC. Format: cell-based, human. The protocol: (§1) Uptake of sEVs was blocked by treating HUVEC with chlorpromazine (15 μM) or dynasore (50 μM) for 30 min prior to addition of sEVs. As a negative control, HUVEC were pretreated with DMSO solvent (0.1%). VEGFR signaling was blocked by treating HUVEC with axitinib (1 nM) or vandetanib (1 μM) for 2 h or with neutralizing Ab to VEGFR2 (250 ng/mL) for 1 h prior to addition of sEVs or recombinant VEGF. […] Thereafter, mixtures were added to HUVEC cultures. To detect intracellular VEGF, cancer cells where indicated were incubated at 37° C. for 6 h with brefeldin A (BioLegend) (5 μg/mL) to block protein secretion and then harvested.
Wells of 96-well plates were coated with growth factor-reduced Matrigel (BD Biosciences) (50 μL/well) and incubated at 37° C. for 30 min. HUVEC (10^4 cells/well) were then seeded in FBS-free Medium 199 without or with addition of sEVs (100 μg/mL) or recombinant VEGF (1 ng/mL), or seeded in whole or sEV-depleted conditioned media. Following incubation at 37° C. for 4 h, capillary tube structures were visualized under a Nikon TS100 light microscope attached to a digital camera. In each experiment, images of 2 to 3 random 100× fields of each well were captured by using NIS Element BR 4 software (Nikon). The number of tubes in each field was quantified by using NIH Image) software with Angiogenesis Analyzer plugin, and an average calculated for each well. […]

Assay [3] relates to parental ES2 cells. Kind of assay: Nude mice with s.c. tumors from parental ES2 cells, tumor volume and plasma human VEGF. The assay is classed as in vivo. How it is done:
(§2) Animal studies were conducted in compliance with protocols approved by the UTMDACC Institutional Animal Care and Use Committee. Four-week-old female nude mice (purchased from UTMDACC animal facility) were used to propagate xenografts. To evaluate VEGF levels in ascites, mice were inoculated i.p, with 1×10^6 ES2 VEGF^+/+ cells, and euthanized by CO2 asphyxiation upon formation of morbid ascites (median survival time of 3 weeks), To evaluate the effects of sEVs, mice were inoculated i.p. with 2×10^6 GFP-expressing ES2 VEGF^−/− cells. […] Mice were treated with these agents i.p. 3 times a week for 2 weeks and thereafter euthanized. […] The 6 doses of sEVs at 500 μg per dose was based on the average volume of ascites and concentration of tumor-derived sEV-VEGF in ascites that forms in mice with i.p. xenografts derived from ES2 VEGF^+/+ cells (FIGS. 15A, 15B). Following euthanasia, volumes of ascites were measured. GFP-expressing tumors were visualized under a Leica MZMLIII stereomicroscope equipped with a GFP filter set and digital camera. Images were captured by using Picture Frame software (Optronics). Tumor burden was quantified by measuring areas of fluorescence signals within the abdominal cavity in captured images by using Image Pro Plus software (Media Cybernetics) as performed previously (Ko et al., 2009). To visualize intratumoral blood vessels, sections of omental tumor tissues, frozen in Optimal Cutting Temperature compound (Thermo Fisher Scientific), were stained with Ab to GFP (1:500 dilution) and CD31 (1:50 dilution) and with DAPI, and viewed under a Nikon 80i fluorescence microscope. Numbers of intratumoral CD31^+ cells were counted in 5 random 100× fields per section and an average score was determined for each mouse. To evaluate circulating VEGF levels, mice were inoculated s.c. with 5×10^6 ES2 VEGF^+/+ cells or HCT116 VEGF^+/+ cells. At 7 days thereafter when tumors were palpable, blood samples were collected retro-orbitally. […] Volumes of s.c. tumors were calculated from 2 perpendicular measurements of tumor diameters taken using calipers. […]

Assay [4] relates to ES2 VEGF^−/− cells. In words: Nude mice with i.p. ES2 VEGF−/− xenografts administered sEVs or recombinant VEGF. Format: in vivo. Conditions: vs control Ig. The protocol:
Animal studies were conducted in compliance with protocols approved by the UTMDACC Institutional Animal Care and Use Committee. Four-week-old female nude mice (purchased from UTMDACC animal facility) were used to propagate xenografts. To evaluate VEGF levels in ascites, mice were inoculated i.p, with 1×10^6 ES2 VEGF^+/+ cells, and euthanized by CO2 asphyxiation upon formation of morbid ascites (median survival time of 3 weeks), To evaluate the effects of sEVs, mice were inoculated i.p. with 2×10^6 GFP-expressing ES2 VEGF^−/− cells. […] Mice were treated with these agents i.p. 3 times a week for 2 weeks and thereafter euthanized. […] The 6 doses of sEVs at 500 μg per dose was based on the average volume of ascites and concentration of tumor-derived sEV-VEGF in ascites that forms in mice with i.p. xenografts derived from ES2 VEGF^+/+ cells (FIGS. 15A, 15B). Following euthanasia, volumes of ascites were measured. GFP-expressing tumors were visualized under a Leica MZMLIII stereomicroscope equipped with a GFP filter set and digital camera. Images were captured by using Picture Frame software (Optronics). Tumor burden was quantified by measuring areas of fluorescence signals within the abdominal cavity in captured images by using Image Pro Plus software (Media Cybernetics) as performed previously (Ko et al., 2009). To visualize intratumoral blood vessels, sections of omental tumor tissues, frozen in Optimal Cutting Temperature compound (Thermo Fisher Scientific), were stained with Ab to GFP (1:500 dilution) and CD31 (1:50 dilution) and with DAPI, and viewed under a Nikon 80i fluorescence microscope. Numbers of intratumoral CD31^+ cells were counted in 5 random 100× fields per section and an average score was determined for each mouse. To evaluate circulating VEGF levels, mice were inoculated s.c. with 5×10^6 ES2 VEGF^+/+ cells or HCT116 VEGF^+/+ cells. At 7 days thereafter when tumors were palpable, blood samples were collected retro-orbitally. […] Volumes of s.c. tumors were calculated from 2 perpendicular measurements of tumor diameters taken using calipers. Pre- and post-treatment plasma samples were pre-cleared with Protein G Sepharose 4 Fast Flow (GE Healthcare) at 4° C. for 16 h to remove Ab-bound VEGF and thereafter were assayed for VEGF by ELISA.

The test system of assay [5] is VEGF in cancer cell-conditioned media. In words: Quantification of unbound bevacizumab in whole and sEV-depleted cancer cell-conditioned media (ELISA). The assay is classed as binding, human. How it is done:
Samples of plasma and ascites (diluted 1:10 in PBS) and conditioned media were centrifuged at 2,400×g at 4° C. for 10 min to remove intact cells and cell debris. Thereafter, supernatants were filtered through a 0.2 μm pore size filter to remove larger particles. A 300 μL aliquot of filtrate was retained for analysis of VEGF. The remainder of the filtrate was centrifuged at 100,000×g at 4° C. for 18 h to remove sEVs. Thereafter, the supernatant (comprising of sEV-depleted sample) was assayed for VEGF.
Wells of 96-well High Bind microplates were coated with recombinant VEGF (100 ng) at RT for 16 h, After washing three times with wash buffer (R&D Systems), wells were blocked with 10% goat serum for 1 h and washed again. […] Absorbance was read at 450 nm.
(In general: ELISA stands for enzyme-linked immunosorbent assay.)

Assay [6] has as its system parental HCT116 cells. In words: Nude mice with s.c. tumors from parental HCT116 cells, tumor volume and plasma human VEGF. Format: in vivo. The protocol: as §2
The subject of assay [7] is VEGFR2. Kind of assay: VEGFR2 phosphorylation in HUVEC (immunoblot). The assay is classed as cell-based, human. How it is done:
as §1
Extracts were prepared by lysing whole cells and sEVs in M-PER buffer (Thermo Fisher Scientific). Protein concentrations of lysates were determined by Bradford assay (BioRad). Lysates were separated by SDS-polyacrylamide gel electrophoresis under non-reducing conditions to detect VEGF and under reducing conditions to detect other proteins, and then transferred to polyvinylidene difluoride membrane (GE Healthcare). Membranes were blocked with 5% non-fat milk in Tris-buffered saline with 0.1% Tween-20 (TBS-T), incubated with primary Ab at 4° C. for 16 h, and then washed with TBS-T buffer. Primary Ab were used at the following dilutions: 1:1000 (for Ab to TSG101, α-actinin-4, HSP90B1, calnexin, phospho-VEGFR2, VEGFR2, VEGF); 1:2000 (for Ab to HSP70); 1:5000 (for Ab to actin). Thereafter, membranes were incubated with 1-IRP-conjugated secondary Ab (1:5000 dilution), washed and visualized with ECL detection reagent (Millipore). Immunoblot data was verified in 3 independent experiments.
(In general: A western blot detects proteins with antibodies after separation by electrophoresis.)

Where [8] appears, read: endothelial cells stimulated with VEGF+/+ sEVs.
Where [9] appears, read: endothelial cells stimulated with recombinant VEGF.

As to “VEGFR1/R2-Fc: chimera of the ligand-binding domains of VEGFR1 and VEGFR2 fused to the Fc portion of human IgG1”, in assay [1] (coupled microbeads incubated with VEGF+/+ sEVs), the “Binding to VEGF+/+ sEVs” value is given as “bound”. The “Binding to VEGF−/− sEVs” value in assay [1] (coupled microbeads incubated with VEGF−/− sEVs (negative control)) is “not”.
In the case of “bevacizumab: humanized monoclonal antibody to human vascular endothelial growth factor (VEGF)”, the Tube formation result in assay [2] (setting [8]) is listed as “not”; in assay [2] (setting [9]), “blocked”. In addition, the “sEV-VEGF levels in plasma” value in assay [3] (ES2, estimated from difference between whole and sEV-depleted plasma, following treatment, P<0,01) is on record as “increased”; in assay [6] (HCT116, estimated from difference between whole and sEV-depleted plasma, following treatment, P<0.05), “increased”. Moreover, the “non-sEV-VEGF levels in plasma” value in assay [3] (ES2, sEV-depleted plasma, following treatment, P<0.05) is “decreased”; in assay [6] (HCT116, sEV-depleted plasma, following treatment, P<0.001) it was “decreased”. The Tumor growth result in assay [3] (s.c. ES2 tumors, treatment for one week) was “did not inhibit”; in assay [4] (mice administered VEGF+/+ sEVs), “not”; in assay [4] (mice administered recombinant VEGF189, 5 mg/kg i.p. 3 times a week for 2 weeks, P<0.001) it was “inhibited”; in assay [6] (s.c. HCT116 tumors, treatment for one week) it was “did not inhibit”. The Angiogenesis entry in assay [4] (mice administered VEGF+/+ sEVs) is recorded as “not”; in assay [4] (mice administered recombinant VEGF189, P<0.0001), “inhibited”. Further, the Ascites result in assay [4] (mice administered VEGF+/+ sEVs) is listed as “not”; in assay [4] (mice administered recombinant VEGF189, P<0.001), “inhibited”. Moreover, in assay [5] (cancer cell-conditioned media incubated with bevacizumab), the “Levels of unbound bevacizumab in whole media compared with sEV-depleted media” value is “almost identical”. Also, the Unbound bevacizumab levels result in assay [5] (sEV-depleted media to which recombinant VEGF189 had been added) is listed as “decrease”. Also, the VEGFR2 phosphorylation entry in assay [7] (setting [8]) is listed as “not”; in assay [7] (setting [9]), “blocked”; in assay [7] (endothelial cells stimulated with sEV-depleted media), “completely blocked”; in assay [7] (endothelial cells stimulated with whole media) it was “only partially inhibited”.
